Test results published in patent US20140363810A1, “METHOD OF MEASURING HUMAN CYP3A INDUCIBILITY” (SEKISUI MEDICAL CO., LTD., priority 2002, published 2014).

Experiments:
[1] = test system: CYP3A4 inducibility (luciferase reporter AdCYP3A4-362-7K with hPXR expression); experiment: in vitro reporter assay, cultured cells infected with virus (A) (AdCYP3A4-362-7K) and virus (B) (AdhPXR); settings: 10 μM, virus (A) AdCYP3A4-362-7K plus virus (B) AdhPXR
Procedure: (§1) A recombinant adenovirus was constructed through the following process.
(§2) Briefly, cells were seeded in a 24-well plate in an amount of 2.0×10^5 cells per well. On the following day; i.e., day 1, the cells were treated with a drug. On day 2, the drug-treated cells were infected with virus, and, 48 hours after viral infection, the cells were recovered. The recovered cells were lysed by use of a reporter lysis buffer (RLB), and the luciferase activity of the lysate was measured.
(§3) Next, virus (B) (AdhPXR) was employed to thereby cause strong expression of hPXR.

[2] = test system: CYP3A4 inducibility (luciferase reporter, CYP3A4 -362 to +11 fragment); experiment: in vitro reporter (luciferase) assay, cultured cells infected with AdCYP3A4-362 virus; settings: 10 μM in DMSO, human liver-cancer-derived cultured cells
Procedure: as §1, §2
All these drugs are known to elicit CYP3A4 induction when administered to humans.

[3] = test system: CYP3A4 inducibility (luciferase reporter AdCYP3A4-362-7K); experiment: in vitro reporter assay, cultured cells infected with virus (A) (AdCYP3A4-362-7K); settings: 10 μM, without virus (B)
Procedure: as §1, §2, §3

[4] = test system: human CYP3A4 inducibility (luciferase reporter AdCYP3A4-362-7K with human PXR expression); experiment: in vivo assay, mice infected with virus (A) (AdCYP3A4-362-7K) and virus (B) (AdhPXR); settings: 100 mg/kg/day×3; virus (A) AdCYP3A4-362-7K, co-administration with virus (B) per FIG. 8
Procedure: (§4) The initial plan for viral administration was an intravenous route through the tail vein. […] Therefore, the route was changed to intraperitoneal administration so that the animal could not acutely respond to the virus. […] Two days after virus administration, each animal was dissected to remove the organ of interest (liver). The liver was homogenized and centrifuged at 9,000×g. Luciferase activity of the supernatant (S-9) was measured (FIG. 4).

[5] = test system: CYP3A4 inducibility (luciferase reporter AdCYP3A4-362); experiment: in vivo assay, luciferase activity in liver S-9 of mice given AdCYP3A4-362 virus; settings: 100 mg/kg intraperitoneally once a day for three days, liver two days after virus
Procedure: as §4

Clc1ccccc1C(c1ccccc1)(c1ccccc1)n1ccnc1 [clotrimazole]
luciferase activity relative to non-treatment [1]: 60 times
elevated luciferase activity level [2]: about eight
induction of luciferase activity [3]: 21 times
attained inducibility (transcription activation) in mice infected with virus (A) [4]: 1,000 times
increase of luciferase activity in mouse liver S-9 compared with control [5]: about nine
